Converted amounts (≈) assume the structure as drawn. “And” between values parts separate entries of the source, which are not always exact repeats. Equal values may be shown once.
What was measured:
Test in all cases: ≥ marks a high value that may be exact or a test limit, other limits are often not marked, values filed in µg/mL are converted to µM
[1] = system: Escherichia coli DH5alpha
[2] = system: Klebsiella pneumoniae ATCC 10031
[3] = system: Salmonella enterica subsp. enterica serovar Typhimurium ATCC 14028
[4] = system: Escherichia coli ATCC 10536
[5] = system: Staphylococcus aureus ATCC 9144
[6] = system: Bacillus subtilis ATCC 6633
[7] = system: Candida albicans ATCC 20032
[8] = system: Escherichia coli ATCC 25922
[9] = system: Staphylococcus aureus ATCC 25923
[10] = system: Pseudomonas aeruginosa ATCC 27853
[11] = system: Staphylococcus aureus ATCC 12600
[12] = system: Streptococcus mutans ATCC 25175
Candida albicans = system: Candida albicans
Escherichia coli UB1005 = system: Escherichia coli UB1005
[13] = system: Pseudomonas aeruginosa H103
[14] = system: Salmonella enterica serovar Typhimurium
[15] = system: Staphylococcus epidermidis
[16] = system: Enterococcus faecalis ATCC 29212

Question: With `CC(C)C[C@H](NC(=O)[C@H](Cc1ccccc1)NC(=O)[C@H](CCCCN)NC(=O)[C@H](C)NC(=O)[C@H](C)NC(=O)[C@H](CC(C)C)NC(=O)[C@H](CCCCN)NC(=O)[C@H](CCCCN)NC(=O)[C@H](CC(C)C)NC(=O)[C@H](CC(C)C)NC(=O)[C@H](CCCCN)NC(=O)[C@H](CC(C)C)NC(=O)[C@@H](N)Cc1ccccc1)C(=O)O` [FLKLLKKLAAKFL] as the molecule, how does the MIC [1] read?
Answer: Its MIC is 2.04 µM (≈ 3.13 µg/mL).

Question: And the MIC [2]?
Answer: Its MIC is 16.3 µM (≈ 25 µg/mL).

Question: And the MIC [3]?
Answer: The MIC was 16.3 µM (≈ 25 µg/mL).

Question: What does the source list for `CC[C@H](C)[C@H](NC(=O)[C@@H]1CCCN1C(=O)[C@@H]1CCCN1C(=O)[C@H](CO)NC(=O)[C@@H](NC(=O)[C@H](CCCCN)NC(=O)[C@H](CCCCN)NC(=O)[C@H](Cc1ccccc1)NC(=O)[C@H](CC(C)C)NC(=O)[C@H](CCCCN)NC(=O)[C@H](CCCCN)NC(=O)CNC(=O)[C@H](CCCCN)NC(=O)[C@H](CCCCN)NC(=O)[C@H](CCCN=C(N)N)NC(=O)[C@H](Cc1ccccc1)NC(=O)[C@H](CCCN=C(N)N)NC(=O)[C@H](CCCCN)NC(=O)[C@H](Cc1ccccc1)NC(=O)[C@H](CCCN=C(N)N)NC(=O)[C@@H](N)Cc1ccccc1)C(C)C)C(=O)N[C@@H](CC(C)C)C(=O)N[C@@H](CC(C)C)C(=O)N[C@@H](CC(C)C)C(=O)N[C@@H](Cc1cnc[nH]1)C(=O)N[C@@H](CC(C)C)C(N)=O` [FRFKRFRKKGKKLFKKVSPPILLLHL]?
Answer: MIC [4]: 3.3 µM and 8.1 µM; MIC [1]: 3.1 µM (≈ 10 µg/mL); MIC [5]: 3.2 µM (≈ 10.3 µg/mL)

Question: Which MIC [6] does the source give for `CC[C@H](C)[C@H](NC(=O)[C@H](CCCN=C(N)N)NC(=O)[C@@H](NC(=O)[C@@H](NC(=O)[C@@H]1CCCN1C(=O)[C@@H](NC(=O)[C@@H](NC(=O)[C@@H](NC(=O)[C@@H]1CCCN1C(=O)CNC(=O)[C@H](Cc1ccc(O)cc1)NC(=O)[C@H](CCCCN)NC(=O)[C@H](CCCCN)NC(=O)[C@H](Cc1c[nH]c2ccccc12)NC(=O)[C@H](C)NC(=O)[C@H](CCCN=C(N)N)NC(=O)[C@H](CC(C)C)NC(=O)[C@@H](NC(=O)[C@H](CCCCN)NC(=O)[C@H](CCCN=C(N)N)NC(=O)CNC(=O)[C@H](CC(C)C)NC(=O)[C@H](CO)NC(=O)[C@H](CCCN=C(N)N)NC(=O)[C@H](C)NC(=O)CNC(=O)CN)[C@@H](C)CC)[C@@H](C)CC)[C@@H](C)CC)C(C)C)[C@@H](C)CC)[C@@H](C)CC)C(N)=O` [GGARSLGRKILRAWKKYGPIIVPIIRI] here?
Answer: Its MIC is 1.2 µM (≈ 3.64 µg/mL).

Question: And the MIC [4]?
Answer: Its MIC is 2.2 µM (≈ 6.67 µg/mL).

Question: And the MIC [1]?
Answer: The MIC was 2.5 µM (≈ 7.58 µg/mL).

Question: And the MIC [5]?
Answer: Its MIC is 3.1 µM (≈ 9.4 µg/mL).

Question: Which MIC [6] does the source give for `CC[C@H](C)[C@H](NC(=O)CN)C(=O)NCC(=O)N[C@@H](C)C(=O)N[C@H](C(=O)N[C@@H](CC(C)C)C(=O)N[C@@H](CCCCN)C(=O)N[C@H](C(=O)N[C@@H](C)C(=O)N[C@H](C(=O)N[C@H](C(=O)NCC(=O)N[C@@H](CC(C)C)C(=O)N1CCC[C@H]1C(=O)N[C@@H](C)C(=O)N[C@@H](C)C(=O)N[C@H](C(=O)N[C@@H](CO)C(=O)N[C@@H](Cc1c[nH]c2ccccc12)C(=O)N[C@H](C(=O)N[C@@H](CCCCN)C(=O)N[C@@H](CCCN=C(N)N)C(=O)N[C@@H](CCCCN)C(=O)N[C@@H](CCCN=C(N)N)C(=O)N[C@@H](CCC(N)=O)C(=O)N[C@@H](CCC(N)=O)C(N)=O)[C@@H](C)CC)[C@@H](C)CC)[C@@H](C)O)[C@@H](C)O)C(C)C)C(C)C` [GIGAVLKVATTGLPAAISWIKRKRQQ] here?
Answer: Its MIC is 6 µM (≈ 16.6 µg/mL).

Question: What about the MIC [4] of the same molecule?
Answer: The MIC was 3.3 µM (≈ 9.12 µg/mL).

Question: What about the MIC [1] of the same molecule?
Answer: Its MIC is 4.2 µM (≈ 11.6 µg/mL).

Question: What about the MIC [5] of the same molecule?
Answer: Its MIC is 4 µM (≈ 11 µg/mL).

Question: `CC[C@H](C)[C@H](NC(=O)CN)C(=O)NCC(=O)NCC(=O)N[C@@H](C)C(=O)N[C@@H](CC(C)C)C(=O)N[C@@H](CC(C)C)C(=O)N[C@@H](CO)C(=O)N[C@@H](C)C(=O)NCC(=O)N[C@@H](CCCCN)C(=O)N[C@@H](CO)C(=O)N[C@@H](C)C(=O)N[C@@H](CC(C)C)C(=O)N[C@@H](CCCCN)C(=O)NCC(=O)N[C@@H](CC(C)C)C(=O)N[C@@H](C)C(=O)N[C@@H](CCCCN)C(=O)NCC(=O)N[C@@H](CC(C)C)C(=O)N[C@@H](C)C(=O)N[C@@H](CCC(=O)O)C(=O)N[C@@H](Cc1cnc[nH]1)C(=O)N[C@@H](Cc1ccccc1)C(N)=O` [GIGGALLSAGKSALKGLAKGLAEHF] was tested. Which MIC [6] did it give?
Answer: Its MIC is at least 42.3 µM.

Question: What about the MIC [7] of the same molecule?
Answer: Its MIC is at least 42.3 µM.

Question: What about the MIC [8] of the same molecule?
Answer: The MIC was 31.7 µM (≈ 75 µg/mL).

Question: And the MIC [9]?
Answer: The MIC was 15.8 µM (≈ 37.5 µg/mL).

Question: Which results are given for `CC[C@H](C)[C@H](NC(=O)[C@H](C)NC(=O)CNC(=O)[C@H](Cc1ccccc1)NC(=O)[C@H](CC(C)C)NC(=O)CN)C(=O)N[C@@H](C)C(=O)NCC(=O)N[C@@H](Cc1ccccc1)C(=O)N[C@H](C(=O)N[C@@H](CCC(=O)O)C(=O)N[C@@H](CC(N)=O)C(=O)NCC(=O)N[C@@H](Cc1c[nH]c2ccccc12)C(=O)N[C@@H](CCC(=O)O)C(=O)NCC(=O)N[C@@H](CCSC)C(=O)N[C@H](C(=O)N[C@@H](CC(=O)O)C(=O)NCC(N)=O)[C@@H](C)CC)[C@@H](C)CC` [GLFGAIAGFIENGWEGMIDG]?
Answer: MIC [8]: > 60.9 µM; MIC [10]: > 60.9 µM; MIC [11]: ≥ 60.9 µM; MIC [12]: ≥ 60.9 µM

Question: `CC[C@H](C)[C@H](N)C(=O)N[C@@H](CC(C)C)C(=O)NCC(=O)N1CCC[C@H]1C(=O)N[C@H](C(=O)N[C@@H](CC(C)C)C(=O)NCC(=O)N[C@@H](CC(C)C)C(=O)N[C@H](C(=O)NCC(=O)N[C@@H](CC(=O)O)C(=O)N[C@H](C(=O)N[C@@H](CC(C)C)C(=O)NCC(=O)N[C@@H](CC(=O)O)C(=O)N[C@@H](CC(C)C)C(=O)N[C@@H](CC(C)C)C(N)=O)[C@@H](C)O)C(C)C)C(C)C` [ILGPVLGLVGDTLGDLL] was tested. Which MIC [6] did it give?
Answer: Its MIC is at least 60.1 µM.

Question: What about the MIC [7] of the same molecule?
Answer: Its MIC is at least 60.1 µM.

Question: And the MIC [8]?
Answer: Its MIC is over 60.1 µM.

Question: What about the MIC [9] of the same molecule?
Answer: The MIC was over 60.1 µM.

Question: With `CC[C@H](C)[C@H](NC(=O)[C@H](CCCN=C(N)N)NC(=O)[C@H](Cc1ccccc1)NC(=O)[C@H](CCC(N)=O)NC(=O)[C@@H](N)CCCCN)C(=O)N[C@@H](CCCN=C(N)N)C(=O)N[C@H](C(=O)N[C@@H](CCCN=C(N)N)C(=O)N[C@H](C(=O)N[C@H](C(=O)N[C@@H](CCCN=C(N)N)C(=O)N[C@@H](CCCCN)C(N)=O)[C@@H](C)CC)C(C)C)C(C)C` [KQFRIRVRVIRK] as the molecule, how does the MIC (Candida albicans) read?
Answer: Its MIC is 3.75 µM (≈ 6 µg/mL).

Question: What about the MIC (Escherichia coli UB1005) of the same molecule?
Answer: The MIC was 1.88 µM (≈ 3 µg/mL).

Question: And the MIC [13]?
Answer: Its MIC is 3.75 µM (≈ 6 µg/mL).

Question: What about the MIC [14] of the same molecule?
Answer: Its MIC is 3.75 µM (≈ 6 µg/mL).

Question: And the MIC [9]?
Answer: Its MIC is 7.5 µM (≈ 12 µg/mL).

Question: What about the MIC [15] of the same molecule?
Answer: Its MIC is 1 µM (≈ 1.6 µg/mL).

Question: What does the source list for `CC[C@H](C)[C@H](NC(=O)[C@H](CCCN=C(N)N)NC(=O)[C@H](C)NC(=O)[C@H](CC(C)C)NC(=O)[C@@H](N)CCCN=C(N)N)C(=O)N[C@H](C(=O)N1CCC[C@H]1C(=O)N[C@H](C(=O)N[C@@H](CCCN=C(N)N)C(=O)N[C@H](C(=O)N[C@@H](C)C(=O)N[C@@H](CCCN=C(N)N)C(=O)O)C(C)C)[C@@H](C)CC)C(C)C` [RLARIVPIRVAR]?
Answer: MIC (Candida albicans): > 176 µM; MIC [16]: > 176 µM; MIC (Escherichia coli UB1005): ≥ 176 µM; MIC [13]: ≥ 176 µM; MIC [14]: ≥ 176 µM; MIC [9]: > 176 µM; MIC [15]: ≥ 176 µM

Question: With `NCCCC[C@H](NC(=O)[C@H](CCCN=C(N)N)NC(=O)[C@H](CCCN=C(N)N)NC(=O)[C@H](Cc1c[nH]c2ccccc12)NC(=O)[C@@H](N)CCCN=C(N)N)C(=O)N[C@@H](Cc1c[nH]c2ccccc12)C(=O)N[C@@H](Cc1c[nH]c2ccccc12)C(=O)N[C@@H](Cc1c[nH]c2ccccc12)C(=O)N[C@@H](Cc1c[nH]c2ccccc12)C(=O)O` [RWRRKWWWW] as the molecule, how does the MIC (Candida albicans) read?
Answer: Its MIC is 5.6 µM (≈ 8.66 µg/mL).

Question: What about the MIC [16] of the same molecule?
Answer: The MIC was 2.8 µM (≈ 4.33 µg/mL).

Question: What about the MIC (Escherichia coli UB1005) of the same molecule?
Answer: Its MIC is 1.4 µM (≈ 2.16 µg/mL).

Question: And the MIC [13]?
Answer: The MIC was 11.2 µM (≈ 17.3 µg/mL).

Question: And the MIC [14]?
Answer: Its MIC is 2.8 µM (≈ 4.33 µg/mL).

Question: And the MIC [9]?
Answer: The MIC was 0.7 µM (≈ 1.08 µg/mL).

Question: And the MIC [15]?
Answer: The MIC was 0.7 µM (≈ 1.08 µg/mL).

Question: `CC(C)C[C@H](NC(=O)[C@H](C)NC(=O)[C@@H](N)CO)C(=O)N[C@H](C(=O)NCC(=O)N[C@H]1CSSC[C@@H](C(=O)N[C@@H](Cc2ccccc2)C(=O)NCC(=O)N[C@@H](CCCN=C(N)N)C(=O)NCC(=O)O)NC(=O)[C@@H]2CCCN2C(=O)[C@H](CC(N)=O)NC(=O)[C@@H]2CCCN2C(=O)[C@@H]2CCCN2C(=O)[C@H](Cc2ccc(O)cc2)NC(=O)[C@H](CO)NC(=O)[C@H](CCCCN)NC(=O)[C@H]([C@@H](C)O)NC(=O)[C@H](Cc2c[nH]c3ccccc23)NC1=O)C(C)C` [SALVGCWTKSYPPNPCFGRG] was tested. Which MIC [7] did it give?
Answer: The MIC was at least 46.7 µM.

Question: And the MIC [9]?
Answer: Its MIC is 11.7 µM (≈ 25 µg/mL).

Source: DBAASP
